Experiments:
[1] = test system: rhythmic bladder contractions; experiment: Rhythmic bladder contractions in rats (in vivo); design: species or system rat; settings: 0.3 mpk, intravenous, female Sprague-Dawley rats; amplitude reduction of bladder contractions
Text: [Experimental Example 3] Experiment on Rhythmic Bladder Contractions in Rats (In Vivo)
Female Sprague-Dawley rat was halothane-anesthetized, and a polyethylene catheter was inserted through urethra lay down straight and fixed. Urine in bladder was excreted through the catheter by gently massaging abdomen of the rat, and then removed. A three-way stopcock was connected to the catheter and a pressure transducer was connected to one side of the three-way stopcock to measure pressure, and a syringe was installed at the other side to inject 37° C. of saline solution. The saline solution was slowly injected until regular bladder contractions occurred repeatedly. When regular bladder contractions occurred stably, test compounds were administered intravenously through the tail vein. Inhibitory effect of the test compounds was evaluated by measuring degree of amplitude reduction of bladder contractions.

[2] = target: T1, human muscarinic M3 receptor (Homo sapiens (Human), UniProt P20309); experiment: Binding assay on human muscarinic M3 receptor ([3H]-methyl scopolamine displacement); settings: membranes overexpressing human M3 receptor, Ki from IC50 by Cheng-Prusoff, read-out: Binding Affinity to M3 Receptor, Ki
In short: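 Displacement of [3H]-methyl scopolamine from membranes overexpressing human M3, in Tris-HCl, 25 °C, 120 min; filter-bound radioactivity counted. Nonspecific binding with 5 μM atropine; Ki from IC50 via Cheng-Prusoff.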

[3] = target: T1, human muscarinic M3 receptor; experiment: Antagonism assay on human muscarinic M3 receptor (carbachol-induced intracellular calcium, FLIPR Calcium 5, transfected Cos-7 cells); format: cell-based; settings: functional inhibitory constant; carbachol-induced intracellular calcium in Cos-7 cells transfected with human M3 receptor
In short: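 Ki values converted by Cheng-Prusoff from IC50 against carbachol-evoked calcium rise, measured with FLIPR Calcium 5 in human M3-transfected Cos-7 cells. Compounds added 3 min before carbachol; signal scaled 0% before, 100% after agonist.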

T1 sequence (P20309 whole entry): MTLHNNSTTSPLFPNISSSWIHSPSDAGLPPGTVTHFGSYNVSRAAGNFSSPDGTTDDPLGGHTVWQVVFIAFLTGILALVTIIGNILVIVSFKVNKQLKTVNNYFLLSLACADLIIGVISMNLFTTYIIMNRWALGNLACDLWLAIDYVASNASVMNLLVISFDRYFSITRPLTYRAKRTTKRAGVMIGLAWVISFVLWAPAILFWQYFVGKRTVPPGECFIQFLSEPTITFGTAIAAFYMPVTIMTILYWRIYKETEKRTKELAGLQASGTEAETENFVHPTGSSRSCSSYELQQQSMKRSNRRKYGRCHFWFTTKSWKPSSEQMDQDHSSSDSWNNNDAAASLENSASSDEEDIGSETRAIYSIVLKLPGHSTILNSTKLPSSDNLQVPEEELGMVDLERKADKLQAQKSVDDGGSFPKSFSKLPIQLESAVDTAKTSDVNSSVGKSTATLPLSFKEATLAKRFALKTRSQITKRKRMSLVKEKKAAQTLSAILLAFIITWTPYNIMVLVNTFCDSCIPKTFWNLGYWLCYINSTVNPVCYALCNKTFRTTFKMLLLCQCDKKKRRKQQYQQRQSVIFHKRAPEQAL

Structure (SMILES)	Ki [2] [nM]	Ki [3] [nM]	Inhibition of Rhythmic bladder contraction in rats [1] [%]
CN1CCCC1CCOC(=O)Nc1ccccc1-c1cc(F)cc(F)c1 (stereo not shown) [Example 2, 2-(1-methylpyrrolidin-2-yl)ethyl(3′,5′-difluoro-[1,1′-biphenyl]-2-yl)carbamate]	8.69	6.02	20.1 ± 3.1
CN1CCCC1CCOC(=O)Nc1ccccc1-c1cccc(F)c1 (stereo not shown) [Example 4, 2-(1-methylpyrrolidin-2-yl)ethyl(3′-fluoro-[1,1′-biphenyl]-2-yl)carbamate]	2.93	3.41	22.3 ± 4.9
CN1CCCC1CCOC(=O)Nc1ccccc1-c1cccc(Cl)c1 (stereo not shown) [Example 8, 2-(1-methylpyrrolidin-2-yl)ethyl(3′-chloro-[1,1′-biphenyl]-2-yl)carbamate]	1.33	3.02	23.2 ± 2.3
CN1CCCC1CCOC(=O)Nc1ccc(F)cc1-c1ccc(F)cc1 (stereo not shown) [Example 19, 2-(1-methylpyrrolidin-2-yl)ethyl(4′,5-difluoro-[1,1′-biphenyl]-2-yl)carbamate]	4.17	1.9	12.8 ± 3.0
Cc1cccc(-c2cc(F)ccc2NC(=O)OCCC2CCCN2C)c1 (stereo not shown) [Example 22, 2-(1-methylpyrrolidin-2-yl)ethyl(5-fluoro-3′-methyl-[1,1′-biphenyl]-2-yl)carbamate]	3.79	2.39	16.7 ± 1.7
CN1CCCC1CCOC(=O)Nc1ccccc1-c1ccccc1F (stereo not shown) [Example 34, 2-(1-methylpyrrolidin-2-yl)ethyl(2′-fluoro-[1,1′-biphenyl]-2-yl)carbamate]	19.6	2.64	20.1 ± 1.8
CN1CCCC1CCOC(=O)Nc1ccc(F)cc1-c1cc(F)cc(Cl)c1 (stereo not shown) [Example 52, 2-(1-methylpyrrolidin-2-yl)ethyl (3′-chloro-5,5′-difluoro-[1,1′-biphenyl]-2-yl)carbamate]	10	1.22	10.8 ± 0.8
Cc1ccc(-c2cc(F)ccc2NC(=O)OCCC2CCCN2C)cc1C (stereo not shown) [Example 59, 2-(1-methylpyrrolidin-2-yl)ethyl(5-fluoro-3′,4′-dimethyl-[1,1′-biphenyl]-2-yl)carbamate]	6.42	2.38	11.6 ± 1.9
CN1CCCC1CCOC(=O)Nc1ccc(Cl)cc1-c1ccccc1 (stereo not shown) [Example 66, 2-(1-Methylpyrrolidin-2-yl)ethyl (5-chloro-[1,1′-biphenyl]-2-yl)carbamate]	6.98	3.06	12.0 ± 1.4
CN1CCCC1CCOC(=O)Nc1ccc(Cl)cc1-c1cccc(Cl)c1 (stereo not shown) [Example 70, 2-(1-Methylpyrrolidin-2-yl)ethyl(3′,5-dichloro-[1,1′-biphenyl]-2-yl)carbamate]	8.17	1.95	9.7 ± 4.1
CN1CCCC1CCOC(=O)Nc1ccc(Cl)cc1-c1ccc(F)c(Cl)c1 (stereo not shown) [Example 73, 2-(1-Methylpyrrolidin-2-yl)ethyl(3′,5-dichloro-4′-fluoro-[1,1′-biphenyl]-2-yl)carbamate]	4.84	4.75	10.0 ± 1.0
CN1CC[C@H](COC(=O)Nc2ccc(F)cc2-c2ccc(Cl)c(Cl)c2)C1 [Example 128, (S)-(1-methylpyrrolidin-3-yl)methyl(3′,4′-dichloro-5-fluoro-[1,1′-biphenyl]-2-yl)carbamate]	3.41	1.2	15.1 ± 3.4
CN1CC[C@H](COC(=O)Nc2ccc(F)cc2-c2cc(F)cc(Cl)c2)C1 [Example 129, (S)-(1-methylpyrrolidin-3-yl)methyl(3′-chloro-5,5′-difluoro-[1,1′-biphenyl]-2-yl)carbamate]	12.6	6.24	15.7 ± 1.4
CN1CC[C@@H](COC(=O)Nc2ccc(F)cc2-c2cc(F)cc(Cl)c2)C1 [Example 142, (R)-(1-methylpyrrolidin-3-yl)methyl(3′-chloro-5,5′-difluoro-[1,1′-biphenyl]-2-yl)carbamate]	4.88	1.04	15.1 ± 3.4

Second part, led by results:

Ki [2] [nM]	Ki [3] [nM]	Structure (SMILES)	Inhibition of Rhythmic bladder contraction in rats [1] [%]
6.27	0.75	CN1CC[C@@H](COC(=O)Nc2ccc(F)cc2-c2cc(F)cc(F)c2)C1 [Example 95, (R)-(1-methylpyrrolidin-3-yl)methyl (3′,5,5′-trifluoro-[1,1′-biphenyl]-2-yl)carbamate]	15.7 ± 0.8
1.6	0.34	CN1CC[C@@H](COC(=O)Nc2ccccc2-c2cccc(Cl)c2)C1 [Example 117, (R)-(1-methylpyrrolidin-3-yl)methyl(3′-chloro-[1,1′-biphenyl]-2-yl)carbamate]	15.4 ± 0.1
8.12	2.86	CN1CC[C@H](COC(=O)Nc2ccc(F)cc2-c2ccc(F)cc2)C1 [Example 124, (S)-(1-methylpyrrolidin-3-yl)methyl(4′,5-difluoro-[1,1′-biphenyl]-2-yl)carbamate]	21.2 ± 0.7
12	1.86	CN1CC[C@@H](COC(=O)Nc2ccccc2-c2cc(Cl)cc(Cl)c2)C1 [Example 131, (R)-(1-methylpyrrolidin-3-yl)methyl(3′,5′-dichloro-[1,1′-biphenyl]-2-yl)carbamate]	17.8 ± 2.5
14.3	2.97	CN1CC[C@@H](COC(=O)Nc2ccc(Cl)cc2-c2cccc(Cl)c2)C1 [Example 145, (R)-(1-methylpyrrolidin-3-yl)methyl(3′,5-dichloro-[1,1′-biphenyl]-2-yl)carbamate]	13.1 ± 3.0
6.85	1.57	CN1CC[C@@H](COC(=O)Nc2ccc(Cl)cc2-c2ccc(F)c(Cl)c2)C1 [Example 146, (R)-(1-methylpyrrolidin-3-yl)methyl(3′,5-dichloro-4′-fluoro-[1,1′-biphenyl]-2-yl)carbamate]	8.2 ± 2.9
9.04	1.33	CN1CCC[C@H]1COC(=O)Nc1ccccc1-c1ccc(Cl)c(Cl)c1 [Example 166, (S)-(1-methylpyrrolidin-2-yl)methyl(3′,4′-dichloro-[1,1′-biphenyl]-2-yl)carbamate]	10.2 ± 1.7
3.29	0.29	CN1CCC[C@H]1COC(=O)Nc1cc(F)c(F)cc1-c1ccc(F)c(Cl)c1 [Example 181, (S)-(1-methylpyrrolidin-2-yl)methyl(3′-chloro-4,4′,5-trifluoro-[1,1′-biphenyl]-2-yl)carbamate]	18.1 ± 2.6
4.6		Cc1cccc(-c2cc(F)ccc2NC(=O)OC[C@@H]2CCN(C)C2)c1 [Example 192, (R)-(1-methylpyrrolidin-3-yl)methyl(5-fluoro-3′-methyl-[1,1′-biphenyl]-2-yl)carbamate]	18.6 ± 3.6
0.78		CN1CCC[C@H]1COC(=O)Nc1ccccc1-c1ccccc1 [Example 197, (S)-(1-methylpyrrolidin-2-yl)-methyl [1,1′-biphenyl]-2-ylcarbamate]	32.8 ± 9.7
1.87		CN1CCC[C@H]1COC(=O)Nc1ccccc1-c1ccc(F)cc1 [Example 198, (S)-(1-methylpyrrolidin-2-yl)methyl(4′-fluoro-[1,1′-biphenyl]-2-yl)carbamate]	26.3 ± 2.4
2.7		Cc1cccc(-c2cc(F)ccc2NC(=O)OC[C@@H]2CCCN2C)c1 [Example 201, (S)-(1-methylpyrrolidin-2-yl)methyl (5-fluoro-3′-methyl-[1,1′-biphenyl]-2-yl)carbamate]	9.1 ± 3.0
2.18		CN1CCC[C@H]1COC(=O)Nc1ccc(F)cc1-c1cccc(F)c1 [Example 202, (S)-(1-methylpyrrolidin-2-yl)methyl (3′,5-difluoro-[1,1′-biphenyl]-2-yl)carbamate]	17.3 ± 1.3
2.36		CN1CCC[C@H]1COC(=O)Nc1ccc(F)cc1-c1ccc(F)cc1 [Example 203, (S)-(1-methylpyrrolidin-2-yl)methyl (4′,5-difluoro-[1,1′-biphenyl]-2-yl)carbamate]	19.4 ± 4.0
3.53		CN1CCC[C@H]1COC(=O)Nc1cc(F)ccc1-c1ccccc1 [Example 204, (S)-(1-methylpyrrolidin-2-yl)methyl (4-fluoro-[1,1′-biphenyl]-2-yl)carbamate]	23.3 ± 6.6
7.95		CN1CCC[C@H]1COC(=O)Nc1cc(F)ccc1-c1cccc(F)c1 [Example 205, (S)-(1-methylpyrrolidin-2-yl)methyl(3′,4-difluoro-[1,1′-biphenyl]-2-yl)carbamate]	11.9 ± 3.7
